A short description of the data set: log P determination by HPLC on reversed-phase column (C 18), EEC directive 79/831 Annex V.A8. In kind it is physicochemical. Conditions: reversed-phase HPLC column (C 18), acidic range pH 2.3, 43° C. The procedure:
The given log P values were determined in accordance with EEC directive 79/831 Annex V.A8 by HPLC (High Performance Liquid Chromatography) on a reversed-phase column (C 18). Temperature: 43° C. Mobile phases for the determination in the acidic range (pH 2.3): 0.1% aqueous phosphoric acid, acetonitrile; linear gradient from 10% acetonitrile to 90% acetonitrile. Calibration was carried out using unbranched alkan-2-ones (having 3 to 6 carbon atoms) with known log P values (determination of the log P values by the retention times using linear interpolation between two successive alkanones).

Consider `CC(CC(C)(C)C)c1ccccc1NC(=O)c1ccccc1C(F)F` (stereo not shown) [No. 1, 2-difluoromethyl-N-[2-(1,3,3-trimethylbutyl)phenyl]benzamide], for which the chromatographic logP came out at 4.38.
